Consider 28 compounds from patent US20040058948A1, “Mappicine analogs, methods of inhibiting retroviral reverse transcriptase and methods of treating retroviruses” (priority 2002, published 2004).

Several values for one entry are separate records, joined by “and”; a condition that tells them apart may be missing. Equal values may be shown once. Read-outs that look alike come from different tables or passages of the source. Bounds are passed on as bounds.

For data set [1], the target named is T1, RNase H activity of HIV reverse transcriptase (Human immunodeficiency virus type 1 group M subtype B, UniProt P04585). Description: Fluorescence (FRET)-based RNase H activity assay of HIV reverse transcriptase. It is filed as biochemical, HIV-1. More on the design: final concentration of 2.5 nM of the p51/p66 RT heterodimer in the assay; made in house. Particulars: for Residual activity (%) RNase H / remaining activity at 10 µM: 10 μM inhibitor concentration, activity with analog / without analog x 100; for remaining activity at 10 µM: read-out: Residual activity (%) RNase H; for IC50: read-out: IC50 (μM) against HIV RNase H in vitro. A digest of the protocol: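 p51/p66 HIV-1 RT (usually 2.5 nM) cleaving a 3′-fluorescein RNA/5′-DABCYL DNA hybrid (2.5 μM stock) in 50 mM Tris pH 8.0, 60 mM KCl, 2.5 mM MgCl2, 37 °C; fluorescence rise (ex 490/em 528 nm) read over 3–60 min. Mappicine analogs at 10 μM; % residual activity or % inhibition versus compound-free enzyme.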

The target in data set [2] is T2, RNA-dependent DNA polymerase activity of HIV reverse transcriptase (Human immunodeficiency virus type 1 group M subtype B, UniProt P04585).
T2 construct: made in house
Description: RNA-dependent DNA polymerase activity assay of HIV reverse transcriptase. It is filed as biochemical, HIV-1. To be noted: 10 μM inhibitor concentration, activity with analog / without analog x 100; for remaining activity at 10 µM: read-out: Residual activity (%) Polymerase. A digest of the protocol:
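HIV reverse transcriptase RNA-dependent DNA polymerase activity measured with and without mappicine analogs at 10 μM final. Values are % residual activity: activity with compound divided by activity without, ×100.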

For data set [3], the system named is HIV-1 replication. Description: Cell culture viral growth assay (HIV-1 replication). It is filed as cell-based.
The target in data set [4] is T1, RNase H activity of HIV reverse transcriptase. To be noted: read-out: IC50 RNase H inhibition; literature value (Borkow et al. 1997); cited from earlier work.
Data set [5] deals with HIV-1 replication. To be noted: published compounds, in words; cited from earlier work.
For data set [6], the system named is cells. To be noted: published compound, in words; cited from earlier work.
Data set [7] concerns cells. To be noted: published compounds, in words; cited from earlier work.
The mark [8] stands for this setting: Human immunodeficiency virus 1, read-out: EC50 (μM) against HIV-1 replication.

As for `CCCCCCc1c2c(nc3ccccc13)-c1cc(C(=O)CC)c(C)c(=O)n1C2` [8Aακ], the “Residual activity (%) RNase H” value in data set [1] amounted to 77%. Besides, in data set [2], the “Residual activity (%) Polymerase” value is given as 53%.

With `CCCCCCc1c2c(nc3ccccc13)-c1cc(C(O)C(C)(C)C)c(C)c(=O)n1C2` (stereo not drawn) [8Aβ], the “Residual activity (%) RNase H” value in data set [1] stood at 91%. For the same compound, in data set [2], the “Residual activity (%) Polymerase” value came to 103%.

As for `CCCCCCc1c2c(nc3ccccc13)-c1cc(C(=O)C(C)(C)C)c(C)c(=O)n1C2` [8Aβκ], the “Residual activity (%) RNase H” value in data set [1] was found to be 96%. In addition, the “Residual activity (%) Polymerase” value in data set [2] was 76%.

In the case of `CCCCCCc1c2c(nc3ccccc13)-c1cc(C(O)CCC3CCCCC3)c(C)c(=O)n1C2` (stereo not drawn) [8Aδ], in data set [1], the “Residual activity (%) RNase H” value is reported as 89%. Besides, the “Residual activity (%) Polymerase” value in data set [2] was found to be 72%.

As for `CCCCCCc1c2c(nc3ccccc13)-c1cc(C(=O)CCC3CCCCC3)c(C)c(=O)n1C2` [8Aδκ], the “Residual activity (%) RNase H” value in data set [1] worked out at 97%. Also, the “Residual activity (%) Polymerase” value in data set [2] turned out to be 63%.

In the case of `CCCCCCc1c2c(nc3ccccc13)-c1cc(C(=O)Cc3ccccc3)c(C)c(=O)n1C2` [8Aεκ], the “Residual activity (%) RNase H” value in data set [1] turned out to be 92%. Besides, the “Residual activity (%) Polymerase” value in data set [2] came out at 59%.

For `CCCCCCc1c2c(nc3ccc(F)cc13)-c1cc(C(O)CC)c(C)c(=O)n1C2` (stereo not drawn) [8Bα], the “Residual activity (%) RNase H” value in data set [1] is 80%. For the same compound, the “Residual activity (%) Polymerase” value in data set [2] came to 57%.

For the compound `CCCCCCc1c2c(nc3ccc(F)cc13)-c1cc(C(=O)CC)c(C)c(=O)n1C2` [8Bακ], the “Residual activity (%) RNase H” value in data set [1] is 103%. For the same compound, the “Residual activity (%) Polymerase” value in data set [2] was found to be 64%.

Regarding `CCCCCCc1c2c(nc3ccc(F)cc13)-c1cc(C(=O)C(C)(C)C)c(C)c(=O)n1C2` [8Bβκ], the “Residual activity (%) RNase H” value in data set [1] was 81%. In data set [2], the “Residual activity (%) Polymerase” value is recorded as 44%.

With `CCCCCCc1c2c(nc3ccc(F)cc13)-c1cc(C(O)CCC3CCCCC3)c(C)c(=O)n1C2` (stereo not drawn) [8Bδ], in data set [1], the “Residual activity (%) RNase H” value is on record as 112%. The “Residual activity (%) Polymerase” value in data set [2] is on record as 90%.

`CCCCCCc1c2c(nc3ccc(F)cc13)-c1cc(C(=O)CCC3CCCCC3)c(C)c(=O)n1C2` [8Bδκ]: the “Residual activity (%) RNase H” value in data set [1] is on record as 95%. Moreover, the “Residual activity (%) Polymerase” value in data set [2] worked out at 80%.

For `CCCCCCc1c2c(nc3ccc(C)cc13)-c1cc(C(=O)CC)c(C)c(=O)n1C2` [8Cακ], the “Residual activity (%) RNase H” value in data set [1] stood at 92%. Besides, the “Residual activity (%) Polymerase” value in data set [2] is reported as 31%.

`CCCCCCc1c2c(nc3ccc(C)cc13)-c1cc(C(=O)C(C)(C)C)c(C)c(=O)n1C2` [8Cβκ]: the “Residual activity (%) RNase H” value in data set [1] was 95%. The “Residual activity (%) Polymerase” value in data set [2] came out at 66%.

On to `CCCCCCc1c2c(nc3ccc(C)cc13)-c1cc(C(O)CCC3CCCCC3)c(C)c(=O)n1C2` (stereo not drawn) [8Cδ], for which, in data set [1], the “Residual activity (%) RNase H” value is on record as 72%. For the same compound, in data set [2], the “Residual activity (%) Polymerase” value came out at 73%.

In the case of `CCCCCCc1c2c(nc3ccc(C)cc13)-c1cc(C(=O)CCC3CCCCC3)c(C)c(=O)n1C2` [8Cδκ], the “Residual activity (%) RNase H” value in data set [1] came out at 95%. For the same compound, the “Residual activity (%) Polymerase” value in data set [2] was 79%.

For the compound `CCCCCCc1c2c(nc3ccc(C)cc13)-c1cc(C(=O)Cc3ccccc3)c(C)c(=O)n1C2` [8Cεκ], in data set [1], the “Residual activity (%) RNase H” value was 86%. Further, in data set [2], the “Residual activity (%) Polymerase” value was 66%.

With `CCCCCCc1c2c(nc3ccc(OC)cc13)-c1cc(C(=O)CC)c(C)c(=O)n1C2` [8Dακ], the “Residual activity (%) RNase H” value in data set [1] (10 µM) is 88% and 84%. In data set [2] (10 µM), the “Residual activity (%) Polymerase” value was 90% and 51%.

As for `CCCCCCc1c2c(nc3ccc(OC)cc13)-c1cc(C(=O)CCC3CCCCC3)c(C)c(=O)n1C2` [8Dδκ], the “Residual activity (%) RNase H” value in data set [1] is reported as 90%. For the same compound, the “Residual activity (%) Polymerase” value in data set [2] is recorded as 65%.

Regarding `CCCCCCc1c2c(nc3ccc(OC)cc13)-c1cc(C(O)Cc3ccccc3)c(C)c(=O)n1C2` (stereo not drawn) [8Dε], the “Residual activity (%) RNase H” value in data set [1] is listed as 82%. In addition, the “Residual activity (%) Polymerase” value in data set [2] stood at 73%.

Turning to `CCC(O)c1cc2n(c(=O)c1C)Cc1c-2nc2ccc(NC(=O)OC(C)(C)C)cc2c1[Si](C)(C)C` (stereo not drawn) [AG 2M, 2-tert-Butyloxycarbonylamino-7-(1-hydroxypropyl)-8-methyl-12-trimethylsilanyl-11H-indolizino[1,2-b]quinolin-9-one], in data set [1], the remaining activity at 10 µM was found to be 47%; the IC50 is < 10 µM and 8 µM. In addition, the EC50 in data set [3] (setting [8]) is approximately 5 µM. The remaining activity at 10 µM in data set [2] worked out at 80%.

Regarding `CCC(O)c1cc2n(c(=O)c1C)Cc1c-2nc2ccc(N)cc2c1[Si](C)(C)C` (stereo not drawn) [AG 3M, 2-Amino-7-(1-hydroxypropyl)-8-methyl-12-trimethylsilanyl-11H-indolizino[1,2-b]quinolin-9-one], the remaining activity at 10 µM turned out to be 63% in data set [1] and 123% in data set [2].

For `CCc1c2c(nc3ccc(NC(=O)OC(C)(C)C)cc13)-c1cc(C(O)CC)c(C)c(=O)n1C2` (stereo not drawn) [AG 5M, 2-tert-Butyloxycarbonylamino-12-ethyl-7-(1-hydroxypropyl)-8-methyl-11H-indolizino[1,2-b]quinolin-9-one], the remaining activity at 10 µM was found to be 68% in data set [1] and 87% in data set [2].

For the compound `CCc1c2c(nc3ccc(N)cc13)-c1cc(C(O)CC)c(C)c(=O)n1C2` (stereo not drawn) [AG 6M, 2-Amino-12-ethyl-7-(1-hydroxypropyl)-8-methyl-11H-indolizino[1,2-b]quinolin-9-one], in data set [1], the remaining activity at 10 µM is 57%; the half-inhibitory concentration (IC50) is < 10 µM and 10 µM. Also, in data set [3] (setting [8]), the EC50 is approximately 5 µM. Further, the remaining activity at 10 µM in data set [2] was determined as 76%.

As to `CCc1c2c(nc3ccc(OC(C)=O)cc13)-c1cc(C(O)CC)c(C)c(=O)n1C2` (stereo not drawn) [AG 7M, 2-Acetoxy-12-ethyl-7-(1-hydroxypropyl)-8-methyl-11H-indolizino[1,2-b]quinolin-9-one], the remaining activity at 10 µM in data set [1] was found to be 63%; in data set [2], 99%.

For `CCc1c2c(nc3ccc(O)cc13)-c1cc(C(O)CC)c(C)c(=O)n1C2` (stereo not drawn) [AG 8M, 12-Ethyl-2-hydroxy-7-(1-hydroxypropyl)-8-methyl-11H-indolizino[1,2-b]quinolin-9-one], the remaining activity at 10 µM stood at 87% in data set [1] and 69% in data set [2].

For the compound `CC(C)(C)c1ccc(C(=O)NN=Cc2c(O)ccc3ccccc23)cc1` [BBNH, N-4-(t-butylbenzoyl)-2-hydroxy-1-napthaldehyde hydrazone], the IC50 was 1.8 µM in data set [1] and approximately 2 µM in data set [4]. In addition, the “antiviral activity against HIV-1 replication in cultured cells” value (from here on “antiviral activity”) in data set [5] is reported as “demonstrated antiviral activity against HIV-1 replication in cultured cells”. In data set [3] (Human immunodeficiency virus 1, cell culture viral growth assay, read-out: EC50 (μM) against HIV-1 replication), the EC50 came to 1.5 µM. Also, the toxicity to cells entry in data set [6] is given as “highly toxic to cells at concentrations only slightly above those that inhibit virus replication”.

On to `O=C(O)C(=O)CC(=O)c1ccc(NC(=O)c2ccccc2)s1` [BTOBA, 4-[5-(benzoylamino)thien-2-yl]-2,4-dioxobutanoic acid], for which, in data set [7], the “ability to penetrate cells” value is listed as “Neither CPHM nor BTOBA are able to penetrate cells”. For the same compound, in data set [5], the “antiviral activity” value is “cannot inhibit HIV-1 replication in cultured cells”.

Regarding `O=C(O)C(=NNc1ccc(Cl)cc1)C(=O)O` [CPHM, 2-[(4-chlorophenyl)-hydrazono]-malonic acid], in data set [7], the “ability to penetrate cells” value is reported as “Neither CPHM nor BTOBA are able to penetrate cells”. Besides, the “antiviral activity” value in data set [5] is recorded as “cannot inhibit HIV-1 replication in cultured cells”.
